Measurements: ChEMBL document CHEMBL4480448, “In Situ Ring Contraction and Transformation of the Rhizoxin Macrocycle through an Abiotic Pathway” (J Nat Prod, 2019)
Activity calls are given as the source filed them.

Legend:
Format in all cases: functional, cell-based
TC-32 = assay: Cytotoxicity against human TC32 cells assessed as reduction in cell viability at 2 uM after 48 hrs by SRB assay
A673 = assay: Cytotoxicity against human A673 cells assessed as reduction in cell viability at 2 uM after 48 hrs by SRB assay
SK-ES1 = assay: Cytotoxicity against human SK-ES-1 cells assessed as reduction in cell viability at 2 uM after 48 hrs by SRB assay
Homo sapiens [1] = species: Homo sapiens; assay: Cytotoxicity against human SJCRH30 cells assessed as reduction in cell viability at 2 uM after 48 hrs by SRB assay
Homo sapiens [2] = species: Homo sapiens; assay: Cytotoxicity against human D283 cells assessed as reduction in cell viability at 2 uM after 48 hrs by SRB assay
Hep293TT = assay: Cytotoxicity against human Hep293TT cells assessed as reduction in cell viability at 2 uM after 48 hrs by SRB assay

Measured: Activity

CO[C@@H](/C(C)=C/C=C/C(C)=C/c1coc(C)n1)[C@@H](C)[C@@H]1C[C@H](O)[C@@](C)(O)[C@@H](O)/C=C/[C@@H](C)[C@H]2C[C@H](CC(=O)O2)C[C@@H]2O[C@H]2C(=O)O1
inactive: TC-32 | A673 | SK-ES1 | Homo sapiens [1] | Homo sapiens [2] | Hep293TT

CO[C@@H](/C(C)=C/C=C/C(C)=C/c1coc(C)n1)[C@@H](C)[C@@H]1C[C@H](O)[C@@](C)(O)[C@H](O)/C=C/[C@@H](C)[C@H]2C[C@H](CC(=O)O2)C[C@@H]2O[C@H]2C(=O)O1
inactive: TC-32 | A673 | SK-ES1 | Homo sapiens [1] | Homo sapiens [2] | Hep293TT

COC(=O)C[C@H]1C[C@@H](O)[C@H](C)[C@@H](O)/C=C/[C@](C)(O)[C@@H](O)C[C@@H]([C@H](C)[C@@H](OC)/C(C)=C/C=C/C(C)=C/c2coc(C)n2)OC(=O)[C@@H]2O[C@H]2C1
inactive: TC-32 | A673 | SK-ES1 | Homo sapiens [1] | Homo sapiens [2] | Hep293TT

CO[C@@H](/C(C)=C/C=C/C(C)=C/c1coc(C)n1)[C@@H](C)[C@@H]1C[C@H](O)[C@H](C(C)=O)/C=C/[C@@H](C)[C@H]2C[C@H](CC(=O)O2)C[C@@H]2O[C@H]2C(=O)O1
inactive: TC-32 | A673 | SK-ES1 | Homo sapiens [1] | Homo sapiens [2] | Hep293TT

CO[C@@H](/C(C)=C/C=C/C(C)=C/c1coc(C)n1)[C@@H](C)[C@@H]1C[C@H](O)[C@@](C)(O)/C=C/[C@H](O)[C@@H](C)[C@H]2C[C@H](CC(=O)O2)C[C@@H]2O[C@H]2C(=O)O1
inactive: TC-32 | A673 | SK-ES1 | Homo sapiens [1] | Homo sapiens [2] | Hep293TT
